Measured values as given in patent US20250325684A1, “POTENT ANTI-CANCER CYCLOTIDES” (University of Southern California, priority 2022, published 2025).
Entries after “also recorded” stand apart in the source; their conditions may differ. Numbered stars: 1 amine (or outer) side, 2 acyl side, 3 side chain; on linkers, the order of the positions; unused ones are H or OH. Bridge positions count the residues as written; N and C are the ends. Square brackets hold non-standard residues; d marks the D form. Peptide text beside a SMILES is read from it. I, II: the chains in the order shown. X1 = O=C(CCc1cn(CCOCCOCCOCCC(=O)[*:2])nn1)[*:1]; isoGln = NC(=O)[C@H](CCC(=O)[*:2])N[*:1]

Legend:
HCT116^−/− = assay: MTT cell viability, HCT116 p53-null cells; assay type: cell-based, human; conditions: HCT116^−/− colon carcinoma, p53 Null; MTT; read-out: EC50
Description: Cell viability assay in several human cancer cell lines (See Tables 1 to 10). Cell lines were cultured in RPMI 1640 (or recommended medium when indicated) medium supplemented with 10% fetal calf serum, penicillin (50 IU/mL) and streptomycin ([…]) at 37° C. in 5% CO2. Cell viability studies was carried using the MTT (3-(4,5-dimethylthiazol-2-yl)-2,5-diphenyltetrazolium bromide) assay as previously described (31). Briefly, ≈2×10^3 CRC cells were be seeded in 96-well microtiter plates in 100 μL RPMI 1640 in the presence of 10% calf serum. […] After 1 h, 210 μL/well of full complemented media was added, the cells were grown for 48 h and then treated with 20 μL of a solution of MTT (5 mg/mL) for 2 h. The medium was discarded and DMSO ([…]) was added to each well and incubated with gentle shaking for 20 min at room temperature. The absorbance at 595 nm of the solution is analyzed using a Tecan Genios Multifunctional Microplate Reader (Tecan System Inc) and the background at 670 nm subtracted. RNA-Seq analysis was performed using state-of-the-art bioinformatics tools. Briefly, raw RNA-Seq reads were mapped to human genome (hg38) using STAR aligner (v2.7.3a). Gencode Release 36 reference was used for annotation. Transcript and gene expression levels were quantified using the IsoEM (37) with default parameters. […]
Cell viability was evaluated using the MTT assay as described above.

HCT116 xenografts = assay: HCT116 xenograft in nude mice; assay type: in vivo, mouse; conditions: two murine models of colorectal carcinoma
Description: Mice xenografts studies. HCT116 p53^−/− and CT26 xenografts were established by injecting 100 uL suspension of basal RPMI containing 0.5×10^6 cells into the rear right flanks of female nude mice (nu/nu) mice (HCT116) or Balb/C (CT26). When tumors reached an average volume of ≈100 mm^3, cohorts (n≥4) were treated with vehicle (5% dextrose in water, D5W), MCo-52-2-cTAT (40 mg/kg), or Nutlin-3 (20 mg/kg, […]) once daily for up to 38 days by intravenous injection (MCo-52-2-cTAT and vehicle) or by intraperitoneal administration (Nutlin-3) for HCT116 xenografts; or with vehicle (D5W), MCo-52-2-cTAT (25 mg/kg) three times per week by intraperitoneal injection. Compounds were prepared in a D5W at a final volume of 50 μL (peptide) or 100 μL (Nutlin-3). […] Individual weights were recorded thrice weekly, comparing the control and treatment groups as an additional indicator of tolerance of drug treatment as well as providing the average weight for calculation of drug dosing. Tumor size was measured with calipers. Tumor volume was calculated by measuring tumor size in two dimensions and applying those measurements to the calculation V=d^2×D/2, where d and D equal to the smaller and larger of the two measurements, respectively. […]

[1] = test system: p53 pathway in LNCaP cells; assay: Activation of the p53 pathway in LNCaP cells; assay type: cell-based, human
Description: Activation of the p53 pathway requires 6 to 8 h after exposing the cells to cyclotide MCo-52-2 for 1 h (FIG. 5B).
Stabilization of p53 could be observed just 8 h after treating the cells with the bioactive cyclotide (FIG. 5B), likely indicating the cyclotide crosses the cellular membrane into the cytosol through an endocytic mechanism as previously described for this type of microproteins (30, 31). […] These transcription factors (ATF3, FOXO3a and RUNX3) and kinases (DYRK2 and HIPK2) have been described to be regulated by the E3 ligase activity of Hdm2/HdmX (6). […] In both cases the peptide was able to inhibit tumor growth by 60% (HCT116-nude mice) and 80% (CT26-Balb/c mice) (FIG. 7).

[2] = Immunogenicity, IgG titer ELISA in Balb/c mice; assay type: in vivo, mouse; conditions: intraperitoneal 25 mg/kg, 3 times per week for 28 days, listed as MCo-52-2-cTAT
Description: The ELISA assay was performed as follows. Micro microplate wells were coated with pmol of streptavidin and then blocked with a 5 solution of nonfat dry milk in PBS. Around of 150 pmol of the corresponding biotinylated antigen (MCo-52-2 or cTAT) were incubated with the streptavidin-coated wells. Murine IgG (m-IgG, 150 pmol) and PBS (no antigen) were used as positive and negative controls in the assay, respectively. Wells coated with antigens MCo-52-2 and cTAT were incubated with serial dilutions of sera from mice untreated and treated with cyclotide MCo-52-2-cTAT. The amount of murine IgG was detected using a goat HRP-conjugated anti-mouse IgG.

[3] = Toxicity observation in tumor-bearing mice; assay type: in vivo, mouse; conditions: dosed up to 40 mg/kg three times per week
Description: Tumor samples were also subjected to SDS-PAGE and analyzed by western blotting for p53, Hdm2, and p21. GAPDH was used as loading control in western blots.
Mice xenografts studies. HCT116 p53^−/− and CT26 xenografts were established by injecting 100 uL suspension of basal RPMI containing 0.5×10^6 cells into the rear right flanks of female nude mice (nu/nu) mice (HCT116) or Balb/C (CT26). […] Compounds were prepared in a D5W at a final volume of 50 μL (peptide) or 100 μL (Nutlin-3). Health checks were performed daily to observe parameters such as body conditioning score, overall appearance and cleanliness, strength of grip, skin color and tone, mobility, gait and activity level as indicators of potential drug related toxicities. Individual weights were recorded thrice weekly, comparing the control and treatment groups as an additional indicator of tolerance of drug treatment as well as providing the average weight for calculation of drug dosing. Tumor size was measured with calipers. Tumor volume was calculated by measuring tumor size in two dimensions and applying those measurements to the calculation V=d^2×D/2, where d and D equal to the smaller and larger of the two measurements, respectively. Mice bearing tumors larger than 2.4 cm^3 were removed from the study, sacrificed and necropsies performed to gather tumor and organ samples for histological analysis. […]

Molecule | EC50 (HCT116^−/−) | p53 expression on tumor tissue (western blotting) (HCT116 xenografts) | Time until activation of the p53 pathway / stabilization of p53 ([1]; after exposing the cells to cyclotide for 1 h, listed as MCo-52-2-cTAT) | Activation of the p53 pathway ([1]; wild type-p53, listed as MCo-52-2-cTAT) | Immunogenicity, IgG titer against the cyclotide [2] | Toxic effects [3]
N=C(N)NCCC[C@@H]1NC(=O)[C@@H](CCCNC(=N)N)NC(=O)[C@H](CCCCN)NC(=O)[C@@H](N)CCCCNC(=O)CC[C@@H](C(=O)O)NC(=O)[C@@H](CCCNC(=N)N)NC(=O)[C@H](CCCNC(=N)N)NC(=O)[C@@H](CCCCN)NC(=O)[C@H](CCCCN)NC(=O)[C@@H](CCCNC(=N)N)NC(=O)CNC(=O)[C@@H](CCCNC(=N)N)NC1=O [cTAT] (H-KK[dR]R[dR]G[dR]K[dK]R[dR]E-OH; lactam 1-12; N-terminus and C-terminus assumed) | > 100 µM |  |  |  |  | 
I: cyclo(ACICRHDSYCGSGSDGGVCPNLYLLCRRDKDCPG) / II: KK[dR]R[dR]G[dR]K[dK]R[dR][isoGln] (disulfide I:2-I:19, I:4-I:26, I:10-I:32; linker I:30-II:N via X1; lactam II:1-II:C) [Cyclotide 52-2-cTAT] |  | stabilizes p53 expression on tumor tissue | 8 h | activate the p53 pathway in wild type-p53 cancer cells (LNCaP) in a dose-dependent fashion; also recorded: activates the p53 pathway in LNCaP cells in a dose-dependent fashion | did not show any significant IgG titer; also recorded: little immunogenicity | No toxic effects were detected
